Laboratory results taken from patent US5043349A, “Substituted pyrrole angiotensin II antagonists” (E. I. Du Pont de Nemours and Company, priority 1990, dated 1991).
Where two headings read alike, the source gives them in different places.

Legend:
Renal Hypertensive Rats = test: Antihypertensive effects in renal hypertensive rats (ligation of the left renal artery); assay type: in vivo; settings: Rattus norvegicus
Experimental: This procedure increases blood pressure by increasing renin production with consequent elevation of AII levels. Compounds are administered orally and/or intravenously via a cannula in the jugular vein. Arterial blood pressure is continuously measured directly through a carotid artery cannula and recorded using a pressure transducer and a polygraph. Blood pressure levels after treatment are compared to pretreatment levels to determine the antihypertensive effects of the compounds (See Table 5).

AII receptor = test: Angiotensin II receptor binding (displacement of 3H-AII from rat adrenal cortical microsomes); settings: 50% displacement of specifically bound 3H-AII (2 nM), 1 hour, room temperature
Experimental: The hormone angiotensin II (AII) produces numerous biological responses (e.g. vasoconstriction) through stimulation of its receptors on cell membranes. […] The reaction mixture contained rat adrenal cortical microsomes (source of AII receptor) in Tris buffer and 2 nM of ^3 H-AII with or without potential AII antagonist. This mixture was incubated for 1 hour at room temperature and the reaction was subsequently terminated by rapid filtration and rinsing through glass micro-fibre filter. Receptor-bound ^3 H-AII trapped in filter was quantitated by scintillation counting.

arterial pressure = settings: cited from earlier work
AII = settings: cited from earlier work
[1] = iv, read-out: Antihypertensive Effects in Renal Hypertensive Rats, Intravenous Activity
[2] = po, read-out: Antihypertensive Effects in Renal Hypertensive Rats, Oral Activity

| IC50 (AII receptor) [nM] | SMILES | minimal effective dose (Renal Hypertensive Rats; [1]) [mg/kg] | minimal effective dose (Renal Hypertensive Rats; [2]) [mg/kg] | further results |
| --- | --- | --- | --- | --- |
| 3000 | CCCCc1cn(Cc2ccc(-c3ccccc3C(=O)O)cc2)nn1 [Example 1, 4-Butyl-1-[(2'-carboxybiphenyl-4-yl)methyl]-1,2,3-triazole] | > 100 | > 100 | – |
| 1000 | CCCCc1cnnn1Cc1ccc(-c2ccccc2C(=O)O)cc1 [Example 2] | ≤ 10 | ≤ 100 | – |
| 6000 | CCCCc1cn(Cc2ccc(-c3ccccc3-c3nn[nH]n3)cc2)nn1 [Example 3, 4-Butyl-1-[2'-(1H-tetrazol-5-yl)-biphenyl-4-yl]methyl-1,2,3-triazoles] | ≤ 10 | ≤ 100 | – |
| 300 | CCCCc1cnnn1Cc1ccc(-c2ccccc2-c2nn[nH]n2)cc1 [Example 4] | ≤ 10 | ≤ 100 | – |
| 820 | CCCCc1nnc(COC)n1Cc1ccc(-c2ccccc2C(=O)O)cc1 [Example 67, 3-Butyl-5-methoxymethyl-4-[(2'-carboxybiphenyl-4-yl)methyl]-1,2,4-triazole] | ≤ 10 | > 100 | – |
| 1800 | CCCCc1nncn1Cc1ccc(-c2ccccc2C(=O)O)cc1 [Example 68, 3-Butyl-4-[(2'-carboxybiphenyl-4-yl)methyl]-1,2,4-triazole] | ≤ 10 | > 100 | – |
| 730 | CCCc1nnc(COC)n1Cc1ccc(-c2ccccc2C(=O)O)cc1 [Example 69, 3-Methoxymethyl-5-propyl-4-[(2'-carboxybiphenyl-4-yl)methyl]-1,2,4-triazole] | ≤ 10 | > 100 | – |
| 5000 | CCc1nnc(COC)n1Cc1ccc(-c2ccccc2C(=O)O)cc1 [Example 70, 3-Ethyl-5-methoxymethyl-4-[(2'-carboxybiphenyl-4-yl)methyl]-1,2,4-triazole] | ≤ 10 | > 100 | – |
| 820 | CCCCc1nnc(CCCC)n1Cc1ccc(-c2ccccc2C(=O)O)cc1 [Example 71, 3,5-Dibutyl-4-[(2'-carboxybiphenyl-4-yl)methyl]-1,2,4-triazole] | ≤ 10 | > 100 | – |
| 140 | CCCc1nnc(COC)n1Cc1ccc(-c2ccccc2-c2nnn[nH]2)cc1 [Example 72, 3-Methoxymethyl-5-propyl-4-[(2'-(1H-tetrazol-5-yl)biphenyl-4-yl)methyl]-1,2,4-triazole] | ≤ 10 | ≤ 100 | – |
| 7300 | CCCCc1cc(COC)n(Cc2ccc(-c3ccccc3C(=O)O)cc2)n1 [Example 170, 5-Methoxymethyl-3-butyl-1-[(2'-carboxybiphenyl-4-yl)methyl]pyrazole] | ≤ 10 | > 100 | – |
| 720 | C=CCCc1cc(COC)nn1Cc1ccc(-c2ccccc2C(=O)O)cc1 [Example 172, 3-Methoxymethyl-5-but-3-enyl-1-[(2'-carboxybiphenyl-4-yl)methyl]-pyrazole] | ≤ 10 | ≤ 100 | – |
| 6700 | CCCc1cc(COC)nn1Cc1ccc(-c2ccccc2C(=O)O)cc1 [Example 173, 3-Methoxymethyl-5-propyl-1-[(2'-carboxybiphenyl-4-yl)methyl]pyrazole] | ≤ 10 | ≤ 100 | – |
| > 1000 | CCCc1cc(COC)n(Cc2ccc(-c3ccccc3C(=O)O)cc2)n1 [Example 174] | ≤ 10 | > 100 | – |
| 9500 | CCCc1cc(C(=O)O)nn1Cc1ccc(-c2ccccc2C(=O)O)cc1 [Example 175, 3-Carboxy-5-propyl-1-[(2'-carboxybiphenyl-4-yl)methyl]pyrazole] | ≤ 10 | – | – |
| 2300 | CCCc1cc(CO)nn1Cc1ccc(-c2ccccc2C(=O)O)cc1 [Example 176, 3-Hydroxymethyl-5-propyl-1-[(2'-carboxybiphenyl-4-yl)methyl]pyrazole] | > 30 | > 30 | – |
| > 3000 | CCCc1cc(CO)n(Cc2ccc(-c3ccccc3C(=O)O)cc2)n1 [Example 177, 5-Hydroxymethyl-3-propyl-1-[(2'-carboxybiphenyl-4-yl)methyl]pyrazole] | > 30 | > 30 | – |
| 4100 | CCCc1cc(C=O)nn1Cc1ccc(-c2ccccc2C(=O)O)cc1 [Example 178, 3-Formyl-5-propyl-1-[(2'-carboxybiphenyl-4-yl)methyl]pyrazole] | ≤ 10 | ≤ 100 | – |
| > 3000 | CCCc1cc(C=O)n(Cc2ccc(-c3ccccc3C(=O)O)cc2)n1 [Example 179, 5-Formyl-3-propyl-1-[(2'-carboxybiphenyl-4-yl)methyl]pyrazole] | > 30 | > 30 | – |
| 1600 | CCCc1ccc(C(=O)OCC)n1Cc1ccc(-c2ccccc2-c2nnn[nH]2)cc1 [Example 277, Ethyl 5-n-propyl-1-[2'-(1H-tetrazol-5-yl)biphenyl-4-yl-methyl]pyrrole-2-carboxylate] | ≤ 10 | ≤ 100 | – |
| > 3000 | CCCc1ccc(C(=O)OCC)n1Cc1ccc(-c2ccccc2C(=O)O)cc1 [Example 278, Ethyl 5-n-propyl-1-[(2'-carboxybiphenyl-4-yl)methyl]pyrrole-2-carboxylate] | > 30 | > 30 | – |
| > 12000 | CCCc1ccc(C(=O)O)n1Cc1ccc(-c2ccccc2C(=O)O)cc1 [Example 279, 5-n-Propyl-1-[(2'-carboxybiphenyl-4-yl)methyl]-pyrrole-2-carboxylic acid] | ≤ 10 | ≤ 100 | – |
| – | CNCC(=O)N[C@@H](CCCN=C(N)N)C(=O)N[C@H](C(=O)N[C@@H](Cc1ccc(O)cc1)C(=O)N[C@H](C(=O)N[C@@H](Cc1cnc[nH]1)C(=O)N1CCC[C@H]1C(=O)N[C@@H](C)C(=O)O)C(C)C)C(C)C [Saralasin, [Sar^1, Ala^8] AII] | – | – | effect when the pressure is not sustained by AII (arterial pressure; due to its agonistic character): generally elicits pressor effects; effect on arterial pressure when the (elevated) pressure is dependent on circulating AII (arterial pressure; mammals and man): lower arterial pressure in mammals and man; effect of oral doses (arterial pressure; oral): ineffective; duration of pharmacological effects (arterial pressure; parenteral administration): relatively short-lasting; antagonism of the actions of AII (AII; pithed rats): one of the most potent competitive antagonists of the actions of AII; agonistic actions of its own (AII; rat, in vivo): possessed agonistic actions of its own |

| SMILES | IC50 (AII receptor) [nM] | minimal effective dose (Renal Hypertensive Rats; [1]) [mg/kg] | minimal effective dose (Renal Hypertensive Rats; [2]) [mg/kg] | further results |
| --- | --- | --- | --- | --- |
| CCCCc1cc(COC)nn1Cc1ccc(-c2ccccc2C(=O)O)cc1 [Example 171, 3-Methoxymethyl-5-butyl-1-[(2'-carboxybiphenyl-4-yl)methyl]pyrazole] | 290 | ≤ 10 | ≤ 100 | – |
